From PubChem BioAssay AID463229 (Broad Institute, 2010) come the findings set out here.

The source made the active and inactive calls.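 The calls were made as follows: active = compounds raising the signal whose fitted half-maximal concentration is at or below their top tested dose (cut at about 25 µM in these data); inconclusive = flat fit at 30 to 70% activity, or a poor fit; inactive = the rest.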

This assay has as its system INS-1E rat beta cells, no cytokines, CellTiter-Glo ATP, 48 h. In words: ATP level change in INS-1E without cytokines, dose response, counter-screen for beta-cell apoptosis protection project, INS-1E rat cells, ATP luminescence, cherry pick (AID 463229).
In general, AC50 refers to the concentration giving half of the maximal activity seen. Consider `N#CC(C#N)=C(Nc1ccc(F)cc1)SCc1cccc(F)c1`, for which the AC50 is 5.08 µM. Regarding `COc1cc([N+](=O)[O-])ccc1NC(=O)CC1SC(=Nc2ccc(F)cc2)N(CCC2=CCCCC2)C1=O` (stereo not given), the AC50 is 4.23 µM.

As for `Clc1ccc(OCCN2CCN(c3ncnc4sccc34)CC2)cc1`, the AC50 is 0.726 µM. With `Nc1ccc2c(c1)C(=O)C(=O)c1ccccc1-2`, the AC50 is 1.2 µM.

On to `CCCCC1CCC(C(=O)N(CC(C)C)c2c(N)n(Cc3ccccc3)c(=O)[nH]c2=O)CC1` (stereo not given), for which the concentration at half-maximal activity (AC50) is 6.87 µM. Next, `CCN1CCN(C(c2ccc(C(F)(F)F)cc2)c2ccc3cccnc3c2O)CC1` (stereo not given): 4.72 µM; `CCCOCc1ccc(O)c2ncccc12`: 7.79 µM; `CCCC(=O)NC(c1ccc(C)cc1)c1ccc2cccnc2c1O` (stereo not given): 1.99 µM. Next, `Nc1nc(Cl)cc(N2CCC(c3cc(-c4ccc(Cl)cc4)n[nH]3)CC2)n1`: 5.56 µM; `C/C(=N\NC(=O)c1ccccc1Cl)c1ccccn1`: 5.98 µM.

For the compound `CC(=O)OC1COC(OC2C(O)C(C)OC(OC3C(OC4CCC5(C)C(CCC6(C)C5CC=C5C7CC(C)(C)CCC7(C(=O)O)CCC56C)C4(C)CO)OCC(O)C3O)C2O)C(O)C1OC(C)=O` (stereo not given), the AC50 is 7.09 µM. As for `CC(C)C(=O)NC(=S)/C=C1/N(C)c2ccccc2C1(C)C`, the AC50 is 7.7 µM. Next, `COc1cc(CNC(C)c2ccccc2)cc(Br)c1OCc1ccc(F)cc1` (stereo not given): 13.8 µM; `O=C(Nc1cccc(S(=O)(=O)Nc2ccc(Cl)cc2)c1)c1ccc(Cl)nc1`: 4.6 µM; `CCC(CNc1cc(OC)cc2cccnc12)NC1CCCCC1` (stereo not given): > 26 µM (inactive). As to `FC(F)(F)c1nnc2c(Sc3ccccc3)nc3ccc(Cl)cc3n12`, the AC50 is 11.1 µM. In the case of `O=C(COc1ccc(Br)cc1)N1CCN(Cc2c[nH]c3ccccc23)CC1` it was 3 µM; in that of `S=C(NCCCN1CCOCC1)N1CCN(c2nc(-c3ccc(Cl)cc3)cs2)CC1`, 12.9 µM. On to `Oc1ccccc1/C=N/Nc1nc2ccccc2o1`, for which the AC50 is 4.62 µM.

Take `Cc1cccc(OCc2n(CC(=O)OC3CC(C)CCC3C(C)C)c3ccccc3[n+]2C)c1` (stereo not given): the AC50 was 4.12 µM. `O=C(N/N=C/c1ccc[nH]1)c1ccc(COc2cccc3cccnc23)cc1`: the AC50 was 1.92 µM.

Take `c1ccc(CNc2nc(-c3ccccn3)nc3ccccc23)cc1`: the AC50 was 7.68 µM. In the case of `CN(C)c1cc[n+](CC(=O)c2ccc(-c3ccccc3)cc2)cc1` it was 1.22 µM; in that of `O=C(Nc1ccc(Cl)cc1)/C(=C/c1cccc(O)c1)c1nc2ccccc2s1`, 4.46 µM. In the case of `COc1cc(C(=O)N/N=C(\c2ccccc2)c2ccccn2)cc(OC)c1OC` it was 3.3 µM; in that of `CCCC(=O)NC(c1ccc2c(c1)OCO2)c1cc(Cl)c2cccnc2c1O` (stereo not given), 4.39 µM. As for `CNC[C@@H](Cc1ccccc1)NC[C@@H](CC1CCCCC1)NCCCc1ccccc1`, the AC50 is 7.41 µM. For the compound `C#CCOCCOCCOCCNc1nc(N2CCN(C(=O)CCCCCCCCCCNC(=O)[C@H](CCCCN)n3cc(C[C@@H](C)CC)nn3)CC2)nc(N2CCN(C(=O)CCCCCCCCCCNC(=O)[C@@H]([C@H](C)O)n3cc(C)nn3)CC2)n1`, the AC50 is 6.91 µM.

As for `COC(=O)C1CN(C#N)N(c2ccc(Cl)cc2)C12c1ccccc1-c1ccccc12` (stereo not given), the AC50 was 4.26 µM. Next, `Cn1c2c(c(=O)n(C)c1=O)C(C(F)(F)F)(C(F)(F)F)N=C(c1ccc(Cl)cc1)N2`: 0.56 µM. Next, `O=Nc1c(O)c2ccccc2c2ccccc12`: 7.61 µM. In the case of `Cc1cccc(NC2=C/C(=N/S(=O)(=O)c3cccs3)c3ccccc3C2=O)c1` it was 3.97 µM; in that of `C=C[C@H](CC(C)C)N(Cc1ccccc1)S(=O)(=O)N(Cc1ccccc1)[C@@H](C=C)CC(C)C`, 5.72 µM; in that of `O=C(NNC(=O)c1ccccc1OCc1ccc(F)cc1)c1ccccc1O`, 13.6 µM. For the compound `CCOc1ccc(C(=O)c2cc([N+](=O)[O-])ccc2N2CCOCC2)cc1`, the AC50 was 0.371 µM. For the compound `CCOc1cc(CNCCc2ccc(S(N)(=O)=O)cc2)ccc1OCc1ccc(Cl)cc1`, the AC50 was 7.84 µM. For the compound `OCCNc1nc(Nc2ccc(Cl)c(Cl)c2)nc2ccccc12`, the AC50 is 14.3 µM.

Take `CN1CCN(C(c2ccc(C(F)(F)F)cc2)c2cc(Cl)c3cccnc3c2O)CC1` (stereo not given): the AC50 is 6.69 µM.

With `CCCC[n+]1ccn(C2=C([O-])c3ccccc3C(=O)/C2=N\S(=O)(=O)c2ccc(Br)cc2)c1`, the AC50 was 15.2 µM. Regarding `O=C(Nc1nc(-c2ccccn2)cs1)c1ccc(F)c(S(=O)(=O)N2CCOCC2)c1`, the AC50 is 7.51 µM. Regarding `O=C(C1=C[C@@H](c2ccc(C(F)(F)F)cc2)C[C@@H](OCCCCO)O1)N1CCN(Cc2ccccc2)CC1`, the AC50 is 12.6 µM. Next, `CCOC(=O)c1c(NC(=O)/C=C/C(=O)O)sc(C)c1-c1ccc(C(C)(C)C)cc1`: 7.17 µM. In the case of `O=c1c2ccccc2nc(COc2ccccc2)n1/N=C/c1cc([N+](=O)[O-])ccc1O` it was 14.7 µM; in that of `O=C(c1ccc2c(c1)[nH]c(=S)n1c3ccccc3nc21)N1CCN(c2cccc(Cl)c2)CC1`, 14.5 µM; in that of `C#CCOCCOCCOCCNc1nc(N2CCN(C(=O)CCCCCCCCCCNC(=O)[C@H](CCCCN)n3cc(CCO)nn3)CC2)nc(N2CCN(C(=O)CCCCCCCCCCNC(=O)[C@H](CCCCN)n3cc(C[C@@H](C)CC)nn3)CC2)n1`, 10.6 µM. For `NS(=O)(=O)c1ccc(N/N=C/c2cn(-c3ccccc3)nc2-c2cccs2)c([N+](=O)[O-])c1`, the AC50 is 5.61 µM. For `CCOc1ccc(C(Nc2cccnc2)c2cc(Cl)c3cccnc3c2O)cc1` (stereo not given), the AC50 was 7.33 µM. In the case of `COc1ccc(-n2c(-c3ccc(Br)cc3)c[n+]3c2CCCCC3)cc1` it was 1.06 µM; in that of `C(C#CCCCCCCCCC[n+]1ccccc1)#CCCCCCCCCC[n+]1ccccc1`, 1.9 µM; in that of `COc1ccc(CNC(=O)c2c(C)oc3c2C(=O)c2ccccc2C3=O)cc1`, 7.42 µM. Next, `Cc1cccc2sc(NNC(=O)c3ccc(S(=O)(=O)N4CCc5ccccc5C4)cc3)nc12`: 3.93 µM; `CCCCCc1cc(=O)oc2c(C(CCN3CCCCC3)c3ccc4c(c3)OCO4)c(OC)cc(OC)c12` (stereo not given): 7.89 µM. Regarding `CCCOc1ccc(/C=N/Nc2cc(N3CCOCC3)ncn2)c(O)c1`, the AC50 was 8.02 µM. In the case of `Cc1sc2ncnc(N3CCN(S(=O)(=O)c4ccc(C(C)(C)C)cc4)CC3)c2c1C` it was 4.17 µM; in that of `CC1=NNC(=O)/C1=C\c1cn(-c2ccccc2)nc1-c1ccccc1`, 7.57 µM; in that of `O=C(N/N=C/c1cc(Cl)ccc1O)c1ccc(Br)cc1`, 4.07 µM. In the case of `COc1nnc(-c2ccc(N3CCCCC3)c(NC(=O)C3CCCCC3)c2)c2ccccc12` it was 5.25 µM; in that of `NC1=NC[C@H](Cc2ccc(O)cc2)N1CCCCC1CCCCC1`, 2.34 µM. Turning to `Oc1ccc2ccccc2c1N=Nc1ccccn1`, the AC50 is 4.14 µM. Consider `CN1c2ccccc2N(C)C1(C)c1ccccc1`, for which the concentration at half-maximal activity (AC50) is 0.604 µM. As for `Cc1[nH]n(-c2ccc(Br)cc2)c(=O)c1/C=N/NC(=O)c1ccccc1`, the AC50 is 2.13 µM. With `c1ccc2c(CNC3CCCCC3)c[nH]c2c1`, the AC50 is 6.79 µM. Next, `CCCCCCCCNc1ncnc2ccccc12`: 0.384 µM; `O=C1C(=O)c2ccccc2-c2ccccc21`: 1.01 µM; `CCN(CC)CCn1nc2c3c(cccc3c1=O)-c1ccccc1-2`: 6.74 µM.

In the case of `O=C(Nc1cccc([N+](=O)[O-])c1)c1cc2ccccc2cc1O`, the AC50 is 4.38 µM.

As to `O=C(N/N=C(\c1ccccc1)c1ccccn1)c1ccccc1Cl`, the AC50 was 6.14 µM. Next, `CC#CC[N+](C)(C)CCCCCCCCCCCC`: 2.23 µM; `Cc1ccc2nc(-c3cccc(-c4cccc(Cl)c4)c3)c(NCc3ccccc3)n2c1`: 7.11 µM.

Turning to `CC(C)=CCc1cc2c(=O)c3c(O)c4c(cc3oc2c(O)c1O)OC(C)C4(C)C` (stereo not given), the AC50 was 7.43 µM. In the case of `COc1ccc(-c2cn(Cc3ccc(C(=O)c4ccccc4)cc3)nn2)cc1` it was 11.6 µM; in that of `COC(=O)c1c(C)oc2ccc(N(C(=O)c3ccncc3)S(=O)(=O)c3ccc4ccccc4c3)cc12`, 17.9 µM.

Regarding `c1ccc(-[n+]2nc(Nc3cccc4ccccc34)sc2-c2c3ccccc3cc3ccccc23)cc1`, the AC50 is 3.86 µM. In the case of `O=C(NNc1ccccc1Br)C(O)(c1cccc(C(F)(F)F)c1)c1cccc(C(F)(F)F)c1` it was 7.06 µM; in that of `COc1ccc(CCNc2ccc(C(CC(N)=O)NC(=O)c3ccc(Br)cc3)cc2[N+](=O)[O-])cc1` (stereo not given), 16.8 µM; in that of `O=S(=O)(/C(=C/c1ccc(C(F)(F)F)cc1)c1nc2ccccc2[nH]1)c1ccccc1`, 5.45 µM. As for `COc1ccc(OC)c(NC(=O)CSc2ncnc3c2cnn3-c2ccccc2Cl)c1`, the AC50 was 2.31 µM. Next, `O=C(Nc1nc2ccc(F)cc2s1)C1CCN(S(=O)(=O)c2cc([N+](=O)[O-])ccc2Cl)CC1`: 7.01 µM; `C=CCC1(CC=C)CCCN1C(=O)c1cc(COc2ccc(C)nc2)on1`: 2.54 µM; `CCC(/C=C1\Sc2ccc(OC)cc2N1CC)=C\c1sc2ccc(OC)cc2[n+]1CCCS(=O)(=O)[O-]`: 5.74 µM. As to `O=C1C(Nc2ccccc2)=C/C(=N/S(=O)(=O)c2cccs2)c2ccccc21`, the AC50 was 2.07 µM. Next, `Cc1ccc(C(=O)N/C(=C\c2ccc(-c3ccc(Cl)cc3)o2)C(=O)NCCCN(C)C)cc1`: 10.9 µM; `CCOC(=O)c1c(NC(=O)c2cc(-c3ccc(Cl)s3)nc3ccccc23)sc(C(N)=O)c1C`: 11.5 µM; `CCOc1ccc(-n2c(O)c(/C=N/Nc3nc(C)cc(C)n3)c3ccccc3c2=O)cc1`: 6.38 µM. In the case of `Cn1nccc1C(=O)NC1CCCc2c1cnn2-c1ccccc1F` (stereo not given) it was 3.16 µM; in that of `Cc1onc(-c2ccccc2)c1C(=O)NC(=S)NNC(=O)c1ccc(O)cc1O`, 0.657 µM.

`Oc1c(C(Nc2cccc(C(F)(F)F)c2)c2ccncc2)ccc2cccnc12` (stereo not given): the AC50 is 6.84 µM. In the case of `Cc1[nH]c2c(ccc3ccccc32)c1C1C(CCN)C1(C)C` (stereo not given) it was 14.6 µM; in that of `O=C(N/N=C/c1sc2ccccc2c1O)c1ccccc1`, 3.92 µM; in that of `Cc1ccc(-c2[nH]ncc2/C=N/n2c(COc3ccccc3C)nc3ccccc3c2=O)cc1`, 8.38 µM.
